Test results taken from PubChem BioAssay (NCI).
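GI50: concentration for 50% inhibition of growth. Definition used: TGI = concentration required for complete inhibition of growth.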

Columns and labels:
Test in all cases: NCI-60 cell line screen, 384-well format
786-0 renal = tested on: 786-0 renal
A498 renal = tested on: A498 renal
A549 NSCLC = tested on: A549 NSCLC
ACHN renal = tested on: ACHN renal
BT-549 breast = tested on: BT-549 breast
CAKI-1 renal = tested on: CAKI-1 renal
CCRF-CEM leukemia = tested on: CCRF-CEM leukemia
COLO 205 colon = tested on: COLO 205 colon
DU-145 prostate = tested on: DU-145 prostate
EKVX NSCLC = tested on: EKVX NSCLC
HCC-2998 colon = tested on: HCC-2998 colon
HCT-116 colon = tested on: HCT-116 colon
HCT-15 colon = tested on: HCT-15 colon
HL-60(TB) leukemia = tested on: HL-60(TB) leukemia
HOP-62 NSCLC = tested on: HOP-62 NSCLC
HOP-92 NSCLC = tested on: HOP-92 NSCLC
HS 578T breast = tested on: HS 578T breast
HT29 colon = tested on: HT29 colon
IGROV1 ovarian = tested on: IGROV1 ovarian
K-562 leukemia = tested on: K-562 leukemia
KM12 colon = tested on: KM12 colon
LOX IMVI melanoma = tested on: LOX IMVI melanoma
M14 melanoma = tested on: M14 melanoma
MALME-3M melanoma = tested on: MALME-3M melanoma
MCF7 breast = tested on: MCF7 breast
MDA-MB-231 breast = tested on: MDA-MB-231 breast
MDA-MB-435 melanoma = tested on: MDA-MB-435 melanoma
MDA-MB-468 breast = tested on: MDA-MB-468 breast
MOLT-4 leukemia = tested on: MOLT-4 leukemia
NCI-H226 lung = tested on: NCI-H226 lung
NCI-H23 lung = tested on: NCI-H23 lung
NCI-H322M lung = tested on: NCI-H322M lung
NCI-H460 NSCLC = tested on: NCI-H460 NSCLC
NCI-H522 lung = tested on: NCI-H522 lung
NCI/ADR-RES ovarian = tested on: NCI/ADR-RES ovarian
OVCAR-3 ovarian = tested on: OVCAR-3 ovarian
OVCAR-4 ovarian = tested on: OVCAR-4 ovarian
OVCAR-5 ovarian = tested on: OVCAR-5 ovarian
OVCAR-8 ovarian = tested on: OVCAR-8 ovarian
PC-3 prostate = tested on: PC-3 prostate
RPMI-8226 leukemia = tested on: RPMI-8226 leukemia
RXF 393 renal = tested on: RXF 393 renal
SF-268 CNS = tested on: SF-268 CNS
SF-295 CNS = tested on: SF-295 CNS
SF-539 CNS = tested on: SF-539 CNS
SK-MEL-28 melanoma = tested on: SK-MEL-28 melanoma
SK-MEL-5 melanoma = tested on: SK-MEL-5 melanoma
SK-OV-3 ovarian = tested on: SK-OV-3 ovarian
SN12C renal = tested on: SN12C renal
SNB-19 CNS = tested on: SNB-19 CNS
SNB-75 CNS = tested on: SNB-75 CNS
SW-620 colon = tested on: SW-620 colon
T-47D breast = tested on: T-47D breast
TK-10 renal = tested on: TK-10 renal
U251 glioblastoma = tested on: U251 glioblastoma
UACC-257 melanoma = tested on: UACC-257 melanoma
UACC-62 melanoma = tested on: UACC-62 melanoma
UO-31 renal = tested on: UO-31 renal

COc1cc2cc(C(=O)CCC(=O)O)sc2cc1OC
GI50 ([…]-0 renal): > 100 µM
TGI (786-0 renal): > 100 µM
GI50 (A498 renal): 33.6 µM
TGI (A498 renal): > 100 µM
GI50 (A549 NSCLC): > 100 µM
TGI (A549 NSCLC): > 100 µM
GI50 (ACHN renal): > 100 µM
TGI (ACHN renal): > 100 µM
GI50 (BT-549 breast): > 100 µM
TGI (BT-549 breast): > 100 µM
GI50 (CAKI-1 renal): > 100 µM
TGI (CAKI-1 renal): > 100 µM
GI50 (CCRF-CEM leukemia): > 100 µM
TGI (CCRF-CEM leukemia): > 100 µM
GI50 (COLO 205 colon): > 100 µM
TGI (COLO 205 colon): > 100 µM
GI50 (DU-145 prostate): > 100 µM
TGI (DU-145 prostate): > 100 µM
GI50 (EKVX NSCLC): > 100 µM
TGI (EKVX NSCLC): > 100 µM
GI50 (HCC-2998 colon): > 100 µM
TGI (HCC-2998 colon): > 100 µM
GI50 (HCT-116 colon): > 100 µM
TGI (HCT-116 colon): > 100 µM
GI50 (HCT-15 colon): > 100 µM
TGI (HCT-15 colon): > 100 µM
GI50 (HL-60(TB) leukemia): 22.7 µM
TGI (HL-60(TB) leukemia): 45.8 µM
GI50 (HOP-62 NSCLC): > 100 µM
TGI (HOP-62 NSCLC): > 100 µM
GI50 (HOP-92 NSCLC): > 100 µM
TGI (HOP-92 NSCLC): > 100 µM
GI50 (HS 578T breast): > 100 µM
TGI (HS 578T breast): > 100 µM
GI50 (HT29 colon): > 100 µM
TGI (HT29 colon): > 100 µM
GI50 (IGROV1 ovarian): > 100 µM
TGI (IGROV1 ovarian): > 100 µM
GI50 (K-562 leukemia): > 100 µM
TGI (K-562 leukemia): > 100 µM
GI50 (KM12 colon): > 100 µM
TGI (KM12 colon): > 100 µM
GI50 (LOX IMVI melanoma): > 100 µM
TGI (LOX IMVI melanoma): > 100 µM
GI50 (M14 melanoma): > 100 µM
TGI (M14 melanoma): > 100 µM
GI50 (MALME-3M melanoma): > 100 µM
TGI (MALME-3M melanoma): > 100 µM
GI50 (MCF7 breast): > 100 µM
TGI (MCF7 breast): > 100 µM
GI50 (MDA-MB-231 breast): > 100 µM
TGI (MDA-MB-231 breast): > 100 µM
GI50 (MDA-MB-435 melanoma): > 100 µM
TGI (MDA-MB-435 melanoma): > 100 µM
GI50 (MDA-MB-468 breast): > 100 µM
TGI (MDA-MB-468 breast): > 100 µM
GI50 (MOLT-4 leukemia): > 100 µM
TGI (MOLT-4 leukemia): > 100 µM
GI50 (NCI-H226 lung): 19.5 µM
TGI (NCI-H226 lung): 74.4 µM
GI50 (NCI-H23 lung): > 100 µM
TGI (NCI-H23 lung): > 100 µM
GI50 (NCI-H322M lung): > 100 µM
TGI (NCI-H322M lung): > 100 µM
GI50 (NCI-H460 NSCLC): > 100 µM
TGI (NCI-H460 NSCLC): > 100 µM
GI50 (NCI-H522 lung): > 100 µM
TGI (NCI-H522 lung): > 100 µM
GI50 (NCI/ADR-RES ovarian): > 100 µM
TGI (NCI/ADR-RES ovarian): > 100 µM
GI50 (OVCAR-3 ovarian): > 100 µM
TGI (OVCAR-3 ovarian): > 100 µM
GI50 (OVCAR-4 ovarian): > 100 µM
TGI (OVCAR-4 ovarian): > 100 µM
GI50 (OVCAR-5 ovarian): > 100 µM
TGI (OVCAR-5 ovarian): > 100 µM
GI50 (OVCAR-8 ovarian): > 100 µM
TGI (OVCAR-8 ovarian): > 100 µM
GI50 (PC-3 prostate): > 100 µM
TGI (PC-3 prostate): > 100 µM
GI50 (RPMI-8226 leukemia): > 100 µM
TGI (RPMI-8226 leukemia): > 100 µM
GI50 (RXF 393 renal): 25 µM
TGI (RXF 393 renal): > 100 µM
GI50 (SF-268 CNS): > 100 µM
TGI (SF-268 CNS): > 100 µM
GI50 (SF-295 CNS): > 100 µM
TGI (SF-295 CNS): > 100 µM
GI50 (SF-539 CNS): > 100 µM
TGI (SF-539 CNS): > 100 µM
GI50 (SK-MEL-28 melanoma): > 100 µM
TGI (SK-MEL-28 melanoma): > 100 µM
GI50 (SK-MEL-5 melanoma): > 100 µM
TGI (SK-MEL-5 melanoma): > 100 µM
GI50 (SK-OV-3 ovarian): > 100 µM
TGI (SK-OV-3 ovarian): > 100 µM
GI50 (SN12C renal): > 100 µM
TGI (SN12C renal): > 100 µM
GI50 (SNB-19 CNS): > 100 µM
TGI (SNB-19 CNS): > 100 µM
GI50 (SNB-75 CNS): > 100 µM
TGI (SNB-75 CNS): > 100 µM
GI50 (SW-620 colon): > 100 µM
TGI (SW-620 colon): > 100 µM
GI50 (T-47D breast): > 100 µM
TGI (T-47D breast): > 100 µM
GI50 (TK-10 renal): > 100 µM
TGI (TK-10 renal): > 100 µM
GI50 (U251 glioblastoma): > 100 µM
TGI (U251 glioblastoma): > 100 µM
GI50 (UACC-257 melanoma): > 100 µM
TGI (UACC-257 melanoma): > 100 µM
GI50 (UACC-62 melanoma): > 100 µM
TGI (UACC-62 melanoma): > 100 µM
GI50 (UO-31 renal): > 100 µM
TGI (UO-31 renal): > 100 µM
